Results on five substances are retold here after US9833497B2, “Human originated EGF domain proteins and use of the same” (CHENGDU SOURCEBIO LIMITED-LIABILITY COMPANY, priority 2013, dated 2017).

Holding throughout (format): cell-based
In one test the test system is Pseudomonas aeruginosa. Kind of test: MIC against Gram-negative bacteria: Pseudomonas aeruginosa. As to conditions: 5×10^5 CFU/mL. The method in brief:
(§1)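 First, colonies from LB agar were grown in LB at 37° C, 185 rpm, to McFarland turbidity 0.5, then centrifuged and resuspended in fresh LB. Next, wells received 5×10^5 CFU/mL bacteria plus two-fold serially diluted EGF domain protein (triplicate). Finally, plates were shaken at 37° C and the no-growth concentration taken as MIC.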

Another test concerns Moraxella catarrhalis. Kind of test: MIC against Gram-negative bacteria: Moraxella catarrhalis. As to conditions: 5×10^5 CFU/mL. An outline of the steps:
as §1

The test system of another test is E. coli DH5α. The test is described as follows: Antibacterial activity: MIC and growth curve against E. coli DH5α in 96-well plate. Conditions: minimal inhibitory concentration against E. coli DH5α; 96-well plate, 5×10^5 CFU/mL, 37° C., judged after 8 h. The method in brief:
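Log-phase DH5α (OD600 about 0.5, 37° C, 185 rpm in LB) was pelleted, resuspended in fresh LB and seeded at 5×10^5 CFU/mL with recombinant protein at 50, 25 and 12.5 μg/mL (two-fold series), in triplicate. Plates were shaken at 175 rpm, 37° C, and OD600 was read every 30 min. MIC was the lowest concentration with no growth.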

For another test, the system named is Proteus vulgaris. The test is described as follows: MIC against Gram-negative bacteria: Proteus vulgaris. Conditions: 5×10^5 CFU/mL. The method in brief:
as §1

The test system of another test is Citrobacter diversus. The test is described as follows: MIC against Gram-negative bacteria: Citrobacter diversus. Conditions: 5×10^5 CFU/mL. The method in brief:
as §1

The next test concerns Klebsiella pneumonia. Kind of test: MIC against Gram-negative bacteria: Klebsiella pneumonia. As to conditions: 5×10^5 CFU/mL. The method in brief: as §1
A further test deals with Aeromonas hydrophila. Kind of test: MIC against Gram-negative bacteria: Aeromonas hydrophila. Conditions: 5×10^5 CFU/mL. An outline of the steps: as §1
The test system of the next test is Enterobacter cloacae. The test is described as follows: MIC against Gram-negative bacteria: Enterobacter cloacae. Conditions: 5×10^5 CFU/mL. The method in brief: as §1
In a further test the test system is E. coli BL21. Kind of test: MIC against Gram-negative bacteria: E. coli BL21. Conditions: E. coli BL21, 5×10^5 CFU/mL. An outline of the steps:
as §1

The subject of a further test is Proteus mirabilis. Kind of test: MIC against Gram-negative bacteria: Proteus mirabilis. As to conditions: 5×10^5 CFU/mL. The method in brief: as §1
Another test has as its system Serratia marcescens. The test is described as follows: MIC against Gram-negative bacteria: Serratia marcescens. As to conditions: 5×10^5 CFU/mL. The method in brief:
as §1

[1] abbreviates: Pseudomonas aeruginosa, 10 h cultivation at 37° C.
Where [2] appears, read: Moraxella catarrhalis, 10 h cultivation at 37° C.
[3] abbreviates: Proteus vulgaris, 10 h cultivation at 37° C.
The mark [4] stands for this setting: Citrobacter diversus, 10 h cultivation at 37° C.
Where [5] appears, read: Klebsiella pneumonia, 10 h cultivation at 37° C.
[6] abbreviates: Aeromonas hydrophila, 10 h cultivation at 37° C.
The mark [7] stands for this setting: Enterobacter cloacae, 10 h cultivation at 37° C.
Where [8] appears, read: Proteus mirabilis, 10 h cultivation at 37° C.
Where [9] appears, read: Serratia marcescens, 10 h cultivation at 37° C.
Where [10] appears, read: Pseudomonas aeruginosa, 96-well plate, 37° C., 10 h.
Setting [11] is: Moraxella catarrhalis, 96-well plate, 37° C., 10 h.
The mark [12] stands for this setting: Proteus vulgaris, 96-well plate, 37° C., 10 h.
Setting [13] is: Citrobacter diversus, 96-well plate, 37° C., 10 h.
Setting [14] is: Klebsiella pneumonia, 96-well plate, 37° C., 10 h.
Where [15] appears, read: Aeromonas hydrophila, 96-well plate, 37° C., 10 h.
Setting [16] is: Enterobacter cloacae, 96-well plate, 37° C., 10 h.
Where [17] appears, read: Proteus mirabilis, 96-well plate, 37° C., 10 h.
The mark [18] stands for this setting: Serratia marcescens, 96-well plate, 37° C., 10 h.

As to “PRT1379 (GWPSCPGDCQGRGRCVQGVCVCRAGFSGPDC; listed as Homo sapiens)”, the “MIC against P. aeruginosa” value in the test on Pseudomonas aeruginosa (setting [1]) amounted to 50 µg/mL. For the same substance, in the test on Moraxella catarrhalis (setting [2]), the “MIC against M. catarrhalis” value was determined as 25 µg/mL. This substance also registered an MIC with E. coli DH5α of 50 µg/mL. In addition, the “MIC against P. vulgaris” value against Proteus vulgaris (setting [3]) came to 25 µg/mL. Also, the “MIC against C. diversus” value against Citrobacter diversus (setting [4]) turned out to be 12.5 µg/mL. Moreover, the “MIC against K. pneumonia” value with Klebsiella pneumonia (setting [5]) came to 12.5 µg/mL. The “MIC against A. hydrophila” value with Aeromonas hydrophila (setting [6]) stood at 25 µg/mL. The “MIC against E. cloacae” value in the test on Enterobacter cloacae (setting [7]) is 50 µg/mL. In addition, the “MIC against E. coli BL21” value against E. coli BL21 (10 h cultivation at 37° C.) amounted to 12.5 µg/mL. For the same substance, the “MIC against P. mirabilis” value against Proteus mirabilis (setting [8]) turned out to be 50 µg/mL. For the same substance, the “MIC against S. marcescens” value against Serratia marcescens (setting [9]) was 12.5 µg/mL.

Consider “PRT1237 (LGPGCLDNCRGHGDCLREQCICDPGYSGPNCY; listed as Homo sapiens)”, for which, in the test on Pseudomonas aeruginosa (setting [10]), the “MIC against P. aeruginosa” value turned out to be 25 µg/mL. The “MIC against M. catarrhalis” value in the test on Moraxella catarrhalis (setting [11]) was 50 µg/mL. The MIC in the test on E. coli DH5α was 12.5 µg/mL. The “MIC against P. vulgaris” value with Proteus vulgaris (setting [12]) came out at 12.5 µg/mL. Moreover, the “MIC against C. diversus” value against Citrobacter diversus (setting [13]) was found to be 25 µg/mL. Also, in the test with Klebsiella pneumonia (setting [14]), the “MIC against K. pneumonia” value came to 12.5 µg/mL. Further, the “MIC against A. hydrophila” value against Aeromonas hydrophila (setting [15]) amounted to 12.5 µg/mL. Further, in the test with Enterobacter cloacae (setting [16]), the “MIC against E. cloacae” value was determined as 12.5 µg/mL. In addition, the “MIC against E. coli BL21” value in the test with E. coli BL21 (96-well plate, 37° C., 10 h) is 12.5 µg/mL. Besides, the “MIC against P. mirabilis” value against Proteus mirabilis (setting [17]) came out at 25 µg/mL. The “MIC against S. marcescens” value against Serratia marcescens (setting [18]) came to 50 µg/mL.

As to “PRT1398 (EVDCLDPTCSSHGVCVNGECLCSPGWGGLNCEL; listed as Homo sapiens)”, the “MIC against P. aeruginosa” value in the test on Pseudomonas aeruginosa (setting [1]) turned out to be 12.5 µg/mL. The “MIC against M. catarrhalis” value against Moraxella catarrhalis (setting [2]) was 25 µg/mL. This substance also returned an MIC against E. coli DH5α of 25 µg/mL. Further, the “MIC against P. vulgaris” value in the test with Proteus vulgaris (setting [3]) came to 25 µg/mL. Moreover, the “MIC against C. diversus” value in the test with Citrobacter diversus (setting [4]) was found to be 12.5 µg/mL. In addition, the “MIC against K. pneumonia” value against Klebsiella pneumonia (setting [5]) was determined as 25 µg/mL. For the same substance, in the test on Aeromonas hydrophila (setting [6]), the “MIC against A. hydrophila” value turned out to be 25 µg/mL. Further, in the test on Enterobacter cloacae (setting [7]), the “MIC against E. cloacae” value turned out to be 50 µg/mL. Besides, the “MIC against E. coli BL21” value in the test on E. coli BL21 (10 h cultivation at 37° C.) amounted to 25 µg/mL. In addition, the “MIC against P. mirabilis” value against Proteus mirabilis (setting [8]) came to 12.5 µg/mL. Also, the “MIC against S. marcescens” value against Serratia marcescens (setting [9]) came to 12.5 µg/mL.

As to “PRT106 (RSVCDLFPSYCHNGGQCYLVENIGAFCRCNTQDYIWHKGMRCE; listed as Homo sapiens)”, the “MIC (μg/mL) P. aeruginosa” value with Pseudomonas aeruginosa (setting [10]) was 12.5 µg/mL. Also, in the test with Moraxella catarrhalis (setting [11]), the “MIC (μg/mL) M. catarrhalis” value came to 12.5 µg/mL. The MIC with E. coli DH5α was 12.5 µg/mL. Also, the “MIC (μg/mL) P. vulgaris” value with Proteus vulgaris (setting [12]) is 12.5 µg/mL. Besides, the “MIC (μg/mL) C. diversus” value against Citrobacter diversus (setting [13]) was 25 µg/mL. Further, the “MIC (μg/mL) K. pneumonia” value with Klebsiella pneumonia (setting [14]) turned out to be 50 µg/mL. For the same substance, the “MIC (μg/mL) A. hydrophila” value with Aeromonas hydrophila (setting [15]) amounted to 12.5 µg/mL. Moreover, the “MIC (μg/mL) E. cloacae” value in the test with Enterobacter cloacae (setting [16]) was 25 µg/mL. The “MIC (μg/mL) E. coli BL21” value in the test on E. coli BL21 (96-well plate, 37° C., 10 h) was 50 µg/mL. In addition, the “MIC (μg/mL) P. mirabilis” value with Proteus mirabilis (setting [17]) was 12.5 µg/mL. The “MIC (μg/mL) S. marcescens” value against Serratia marcescens (setting [18]) was 12.5 µg/mL.

As to “PRT190 (ECPLNYCRNGGTCVVEKNGPMCRCRQGWKGNRC; listed as Homo sapiens)”, in the test with Pseudomonas aeruginosa (P. aeruginosa, 10 h cultivation at 37° C.), the “MIC (μg/mL) P. aeruginosa” value was 50 µg/mL. Moreover, in the test with Moraxella catarrhalis (M. catarrhalis, 10 h cultivation at 37° C.), the “MIC (μg/mL) M. catarrhalis” value stood at 12.5 µg/mL. The substance also gave an MIC with E. coli DH5α of 12.5 µg/mL. Moreover, in the test on Proteus vulgaris (P. vulgaris, 10 h cultivation at 37° C.), the “MIC (μg/mL) P. vulgaris” value was found to be 12.5 µg/mL. Besides, the “MIC (μg/mL) C. diversus” value against Citrobacter diversus (C. diversus, 10 h cultivation at 37° C.) was 12.5 µg/mL. Also, the “MIC (μg/mL) K. pneumonia” value in the test on Klebsiella pneumonia (K. pneumonia, 10 h cultivation at 37° C.) turned out to be 25 µg/mL. Besides, the “MIC (μg/mL) A. hydrophila” value in the test with Aeromonas hydrophila (A. hydrophila, 10 h cultivation at 37° C.) is 25 µg/mL. Further, the “MIC (μg/mL) E. cloacae” value in the test on Enterobacter cloacae (E. cloacae, 10 h cultivation at 37° C.) is 12.5 µg/mL. Moreover, the “MIC (μg/mL) E. coli BL21” value against E. coli BL21 (10 h cultivation at 37° C.) was found to be 25 µg/mL. Also, in the test on Proteus mirabilis (P. mirabilis, 10 h cultivation at 37° C.), the “MIC (μg/mL) P. mirabilis” value turned out to be 12.5 µg/mL. In addition, the “MIC (μg/mL) S. marcescens” value against Serratia marcescens (S. marcescens, 10 h cultivation at 37° C.) stood at 12.5 µg/mL.

The MIC is the smallest concentration in the dilution series that meets the test's criterion for growth inhibition. A lower MIC goes with inhibition by little substance.
